Results from article PMC12193058, “Discovery of Small Molecules Targeting Norovirus 3CL Protease by Multi-Stage Virtual Screening” (International Journal of Molecular Sciences, 2025).

How the values were obtained:
[1] = test system: Murine norovirus (MNV, strain MNV-1.CW1); test: Antiviral assay: MNV-infected RAW264.7 cells, protection from CPE (MTS); type: cell-based
Description: (§1) Murine norovirus (MNV, strain MNV-1. CW1) was propagated as previously described. HG23 cells and RAW 264.7 cells were maintained as described earlier. The cells were incubated at 37 °C in a humidified atmosphere of 5% CO2. To obtain virus stock, once full CPE was observed, the cells underwent two freeze–thaw cycles and the virus was harvested from the supernatants after centrifugation (10 min, 1000× g) and stored at […]. The viral titer was determined by endpoint titration.
(§2) The experiment was performed as previously described. In short, RAW264.7 cells (1 × 10^4 cells/well) were infected with MNV.CW1 in the presence of a dilution series of compounds. Antiviral activity and cytotoxicity were determined using a colorimetric assay using 3-(4,5-dimethylthiazol-2-yl)-5-(3-carboxymethoxyphenyl)-2-(4 sulfophenyl)-2H-tetrazolium (MTS). The 50% effective concentration (EC50) was defined as the compound concentration that protected 50% of the cells from CPE. The cell viability % was calculated as (ODtreated/ODCC) × […] and the 50% cytotoxic concentration (CC50) was defined as the compound concentration that reduces the number of viable cells by 50%. HuNoVGI.1replicon: The experiment was performed as described earlier with minor modifications. In short, HG23 cells (7.5 × 10^2 cells/well) were seeded into the wells of a 96-well plate without G418 (Geneticin Selective Antibiotic). After 24 h of incubation, the tested compounds were added. The cells were incubated for another 72 h; then they were collected for RNA load quantification using RT-qPCR [34]. The EC50 values were defined as the compound concentration that led to a 50% reduction in the relative HuNoV GI.1 replicon RNA levels.

[2] = Cytotoxicity assay (MTS) in non-infected cells; type: cell-based; conditions: mouse, RAW264.7 cells (non-infected); cytotoxic concentration to induce 50% death of non-infected cells; mean of two to three independent experiments
Description: as §1, §2

| Structure (SMILES) | EC50 [1] [µM] | CC50 [2] [µM] |
| --- | --- | --- |
| CC(C)C1C(O)=Nc2ccccc2N1C(=O)N[C@@H](Cc1ccccc1)C(=O)N[C@@H](CCC(N)=O)C(=O)O (stereo partly shown) [YY-4047] | > 50 | > 50 |
| O=C(NCc1cccc(Cl)c1)[C@H](Cc1ccccc1)NC(=O)N1CC(O)=Nc2ccccc21 [YY-9773] | > 50 | > 50 |
| CNC(=O)c1ccc(C)c(NC(=O)NCCN2CCNC2=O)c1 [YY-4095] | > 50 | > 50 |
| COc1cncc(C(NC(=O)c2cc(=O)[nH]c3ccccc23)[C@H]2C[C@H](O)C2)c1 (stereo partly shown) [YY-3656] | > 50 | > 50 |
| COc1cc(C(CC(=O)NCC(=O)NCc2ccco2)c2oc(C)cc(=O)c2O)ccc1O (stereo not shown) [YY-0420] | > 50 | > 50 |
| Cc1nc2ccc(NC(=O)N3CCNC(=O)C3CCO)cc2nc1C (stereo not shown) [YY-0809] | > 50 | > 50 |
| O=C(ON1C(=O)CCC1=O)[C@H](Cc1ccccc1)NC(=O)N1CC(O)=Nc2ccccc21 [YY-9242] | > 50 | > 50 |
| COc1ccc(CCN(C(=O)Cc2nnc(O)c3ccccc23)[C@@H](C)C(N)=O)cc1 [YY-8610] | > 50 | > 50 |
| CCCCNC(=O)[C@H](Cc1ccccc1)NC(=O)N1CC(O)=Nc2ccccc21 [YY-6127] | > 50 | > 50 |
| Cc1cc(N)n(CC(=O)N(Cc2cccnc2)Cc2ccc3c(c2)OCO3)n1 [YY-0744] | > 50 | > 50 |
| COc1ccc(C(CC(=O)N2CCc3c([nH]c4ccccc34)C2)c2oc(C)cc(=O)c2O)cc1O (stereo not shown) [YY-4958] | > 50 | > 50 |
| CC1=NN=C(O)C1CC(=O)N/N=C/c1cccc(Br)c1 (stereo not shown) [YY-0182] | > 50 | > 50 |
| COc1cc(NC(=O)[C@H](Cc2ccccc2)NC(=O)N2CC(O)=Nc3ccccc32)cc(OC)c1 [YY-9837] | > 50 | 45 |
| COc1ccc(CCNC(=O)[C@H](Cc2ccccc2)NC(=O)N2CC(O)=Nc3ccccc32)cc1 [YY-4204] | > 50 | > 50 |
| Cc1[nH][nH]c(=O)c1CC(=O)N1C[C@@H](c2ccccc2)O[C@@H](C(C)C)C1 [YY-0587] | > 50 | > 50 |
| O=C(NC1CCCc2ccccc21)[C@H](Cc1ccccc1)NC(=O)N1CC(O)=Nc2ccccc21 (stereo partly shown) [YY-3724] | > 50 | > 50 |
| CCC(SC1=Nc2ccccc2C2=NC(=O)C(CCC(=O)NCc3ccc(F)cc3)N12)C(=O)Nc1cccc(OC)c1 (stereo not shown) [YY-0734] | > 50 | > 50 |
